One may read the IC50 as the concentration that inhibits the measured activity by half. Low readings indicate inhibition by little substance, high ones a need for much substance. The term CC50 denotes the concentration that lowers cell viability or growth by half. Higher therefore signals better tolerance by the cells.

These results are taken from paper PMC10916518 (Drug Design, Development and Therapy, 2024).

Values after ≈ are worked out from the molar mass of the structure shown.

The test system of one data set is RD cells. The data set is described as follows: Cytotoxicity of medicines by CCK-8. It counts as cell-based, human. The following applies: 48 h.
Data set [1] concerns EV71. Nature of the data set: Inhibition of cell death caused by EV71 infection. It counts as cell-based, Enterovirus 71. The conditions noted are these: Enterovirus A, EV71, RD, 48 h.
Data set [2] is described as follows: Cytotoxicity of medicines by CCK-8. It counts as cell-based, human. The conditions noted are these: human, RD cells.
Data set [3] deals with EV71. The conditions noted are these: Vero cells pretreated with 200 μM before infection; cited from earlier work.

`O=C(/C=C/c1ccc(O)c(O)c1)O[C@H](Cc1ccc(O)c(O)c1)C(=O)O` [Rosmarinic acid, rosmarinic acid] returned an MNTC with RD cells of 50.00 µg/mL. Further, the IC50 in the data set with EV71 [1] amounted to 11.9 µg/mL (≈ 33 µM).

On to `O=c1c(O[C@@H]2O[C@H](CO)[C@H](O)[C@H](O)[C@H]2O)c(-c2ccc(O)c(O)c2)oc2cc(O)cc(O)c12` [Hyperoside], for which the MNTC in the data set on RD cells stood at 200.00 µg/mL.

On to `O=C(/C=C/c1ccc(O)c(O)c1)O[C@H]1[C@H](O)C[C@](O)(C(=O)O)C[C@H]1O` [Cryptochlorogenic acid, cryptochlorogenic acid], for which the MNTC in the data set on RD cells is 100.00 µg/mL.

Regarding `O=c1c(O[C@@H]2O[C@H](CO)[C@@H](O)[C@H](O)[C@H]2O)c(-c2ccc(O)cc2)oc2cc(O)cc(O)c12` [Astragalin], the MNTC with RD cells came to 200.00 µg/mL.

With `O=C(O)/C=C/c1ccc(O)c(O)c1` [Caffeic acid], the MNTC in the data set with RD cells was determined as 50.00 µg/mL.

In the data set on RD cells, `O=C(O)c1cc(O)c(O)c(O)c1` [Gallic acid, gallic acid] yielded an MNTC of 6.25 µg/mL.

In turn, `NC(=O)c1ncn([C@@H]2O[C@H](CO)[C@@H](O)[C@H]2O)n1` [ribavirin, Ribavirin, reference compound] gave a half-maximal cytotoxic concentration (CC50) at 48 h in data set [2] of 2430 µg/mL (≈ 9950 µM). Also, the “MNTC (maximum non-toxic concentration)” value in the data set on RD cells (cell survival rate ≥ 90%) is listed as 1 mg/mL. In the data set with EV71 [1], this compound returned a concentration for half-maximal inhibition (IC50) of 290 µg/mL (≈ 1190 µM).

`C[C@@H]1O[C@@H](OC[C@H]2O[C@@H](Oc3c(-c4ccc(O)c(O)c4)oc4cc(O)cc(O)c4c3=O)[C@H](O)[C@@H](O)[C@@H]2O)[C@H](O)[C@H](O)[C@H]1O` [Rutin, rutin]: the MNTC in the data set with RD cells was determined as 200.00 µg/mL. For the same compound, the “EV71-induced CPE and viral replication” value in the data set with EV71 [3] is on record as “significantly suppress”.
